# From PubChem BioAssay AID1645871
# Square brackets hold non-standard residues; d marks the D form. Peptide text beside a SMILES is read from it. ξ: configuration not given here. ξLac(3-iPr) = CC(C)CC(O)C(=O)O; NMeV = CN[CH](C(=O)O)C(C)C; NMeA = CN[CH](C)C(=O)O; βAla = NCCC(=O)O
# Conditions: pampa; pH 5.0; 30.0 min; 50.0 µM
row,Papp [×10⁻⁶ cm/s],SMILES
1,617,Cc1ccc(Cl)cc1NS(=O)(=O)c1cc2c(cc1F)NC(=O)CC2
2,401,COc1cccc(-n2nc(C(=O)O)cc2-c2ccc(C3CCCCC3)c(Cl)c2)c1
3,324,COc1ccc(CN2CCc3c(c(=O)n4ncc(C(=O)N5CCN(c6ccccc6OC)CC5)c4n3C)C2)cc1
4,232,COc1ccc(-c2nc3ccc(C4=NNC(=O)CC4C)cc3[nH]2)cc1 (stereo not given)
5,878,CSc1nn(Cc2cccc(C)c2)c(N)c1S(=O)(=O)c1ccccc1
6,139,CCOc1ccccc1C(=O)Nc1ccncc1C(=O)Nc1cccc(S(=O)(=O)C(F)(F)F)c1
7,653,CCc1ccc2ncc(C(=O)c3ccc(C)c(C)c3)c(N3CCC(C(N)=O)CC3)c2c1
8,28.6,Cc1ccc2nc(-c3cc(NC(=O)c4ccc5c(c4)OCCO5)ccc3Cl)oc2c1
9,800,CC(C)Oc1ccc(C(=O)Nc2ccc3c(c2)CCCN3C(=O)c2cccs2)cc1
10,62.8,Cc1ccnc(NC(=O)C2CC(=O)N(c3n[nH]c4cc(Br)ccc34)C2)c1 (stereo not given)
11,5.09,O=C(NCCc1cnc[nH]1)c1ccc(-c2ncc3cnc(-c4cccc(F)c4)cn23)cc1
12,288,CCc1ccc(C2C(C(=O)Nc3ccccc3OC)=C(C)Nc3c(C(=O)Nc4ccc(C)cc4)cnn32)cc1 (stereo not given)
13,68.7,CCOc1cc(=O)n2c(c1C(=O)Nc1cc(OC)c(Cl)cc1OC)CCCC2
14,296,O=C(NCc1ccccc1)c1nc(S(=O)(=O)Cc2ccc(F)cc2)ncc1Cl
15,32.2,CCc1[nH]c2ccc(CNC(=O)Cc3cnc4c(C)cccn34)cc2c1C
16,505,O=C(Nc1ccccc1F)c1nc(S(=O)(=O)Cc2ccccc2F)ncc1Cl
17,> 1000,CCOc1ccccc1CNS(=O)(=O)c1ccc(-c2cnc(C3CC3)o2)cc1
18,402,COc1ccccc1C(=O)Nc1nnc(SCc2cc(=O)c3ccccc3[nH]2)s1

row,Papp [×10⁻⁶ cm/s],SMILES
1,> 1000,Cc1cc(C)nc(NS(=O)(=O)c2ccc(NC(=S)NC(=O)COc3ccc(Br)cc3Cl)cc2)n1
2,405,O=C(O)Cc1ccc2oc(-c3ccc(NC(=O)/C=C/c4ccc(Br)cc4)c(F)c3)nc2c1
3,455,COC(=O)Nc1nc2ccc(C(=O)c3ccccc3)cc2[nH]1
4,773,COc1ccc(-n2nc(C)c([C@@H]3C=C[C@@H](NCc4cccc(Cl)c4)C3)c2C)cc1
5,48.2,Cc1ccc(-c2nc(C)c(C(=O)Nc3ccc4c(c3)C(=O)N3CCC[C@H]3C(=O)N4)s2)cc1
6,19.3,CN1CCN(Cc2ccc(NC(=O)Cc3ccc(Oc4cc(NC(=O)C5CC5)ncn4)cc3)cc2C(F)(F)F)CC1
7,81.8,COc1ccc(-c2ccc3ncc(Nc4ccc(C(N)=O)cc4)n3n2)cc1OC
8,2.33,COc1ccc(OC)c(CN2CCNc3cc(Nc4ccccc4)ncc3C2)c1
9,265,C#CCOc1ccc(-c2nnc(Nc3ccc(NC(C)=O)cc3)c3ccccc23)cc1
10,83.9,Cc1nc2nc(NC(=O)c3ccc(C(C)(C)C)cc3)[nH]n2c(=O)c1Cl
11,448,CCOC(=O)c1ccc(N2C(=O)c3n[nH]c(-c4cccs4)c3C2c2ccc(OCC)cc2)cc1 (stereo not given)
12,> 1000,CC(=O)c1c(C)oc2ccc(N(C(=O)Oc3ccccc3)S(=O)(=O)c3ccccc3)cc12
13,1.2,COc1ncc(-c2ccc3c(Nc4cc(Oc5cc(F)cc(F)c5)cc(C(=O)O)c4)c(S(=O)(=O)NC4CC4)cnc3c2)c(OC)n1
14,> 1000,COc1cccc(Cn2c(=O)n(-c3cccc(Cl)c3C)c(=O)c3c4c(sc32)CN(C(C)=O)CC4)c1
15,679,N#Cc1ccc(C(=O)Nc2ccc(Cl)c(-c3nc4cc(Cl)ccc4o3)c2)c(F)c1
16,315,COc1ccc(-n2nc(C3CCCN(C(=O)Nc4ccccc4)C3)[nH]c2=O)cc1 (stereo not given)
17,410,Cc1ccc(CNCc2cn[nH]c2-c2ccc(C)cc2)cc1
18,> 1000,c1cn2cc(-c3ccc4cn[nH]c4c3)nc(Nc3ccc(N4CCOCC4)cc3)c2n1

# Further lines, the compound ahead of its results:
row,SMILES,Papp [×10⁻⁶ cm/s]
1,c1ccc(CNc2cc3c(cn2)CN(Cc2cccnc2)CCN3)cc1,15.8
2,Cn1cnc(-c2nccc3c(=O)[nH]c(OCCCC(F)(F)F)nc23)c1,78.7
3,COc1ccc2[nH]c(S(=O)Cc3ncc(C)c(OC)c3C)nc2n1 (stereo not given),49.8
4,Cc1ccc(C(=O)N2CCc3c(nc4cc(-c5ccccc5)[nH]n4c3=O)C2)cn1,1.2
5,CN1CCCN(C(c2ccccc2)c2ccc(Cl)cc2)CC1 (stereo not given),> 1000
6,CN(C)C(=O)NC1CCC(CCN2CCN(c3cccc(Cl)c3Cl)CC2)CC1 (stereo not given),350
7,CC(C)c1ccccc1-c1nc(NCc2ccc(-c3cccnc3)cc2)c2ccccc2n1,> 1000
8,COCCNc1ncc(-c2cccc(O)c2)c2c1OCC2,77
9,Cc1cccc(S(=O)(=O)c2cn(Cc3ccccc3)c3cc(N4CCCC(C)C4)c(F)cc3c2=O)c1 (stereo not given),832
10,COc1ccc(-n2nc(C3CCN(C(=O)c4ccccc4)CC3)[nH]c2=O)cc1,250
11,COc1ccc(-c2noc([C@@H]3Cc4nc[nH]c4CN3C(=O)NC3CCCCC3)n2)cc1,58.2
12,Oc1ccc(CN2CC(CNc3ccccc3)C3(C2)CN(c2ccccc2)C3)cc1 (stereo not given),> 1000
13,CC1=C[C@@H](CNCc2cccnc2)[C@H](C(C)C)C[C@H]1Cc1nnc(-c2ccc([N+](=O)[O-])cc2)o1,984
14,O=c1ncn2nc(Sc3ccc(F)cc3F)ccc2c1-c1c(Cl)cccc1Cl,793
15,CCOC(=O)NNc1ccc(N(CC)CC(C)O)nn1 (stereo not given),8.57
16,Fc1cccc(CN2CCNc3cc(Nc4ccccc4)ncc3C2)c1,5.74
17,O=C(NCC1CCOCC1)C1CC(=O)N(c2n[nH]c3cc(Br)ccc23)C1 (stereo not given),10.6
18,Fc1ccccc1CNCc1ccc(-c2ccnc3[nH]ccc23)cc1,266
19,O=C(NC1CCCc2c1[nH]c1c(Cl)cccc21)c1ccc2c(c1)OCO2 (stereo not given),190
20,CN1CCN(C(=O)Cc2c[nH]c3ncc(-c4ccccc4Oc4ccccc4)cc23)CC1,578
21,Cc1cccc(-n2ncc3c2CCCC3NC(=O)c2c(F)ccc(F)c2F)c1C (stereo not given),552
22,Cc1ccccc1S(=O)(=O)N1CCCC(CCC(=O)NCCN(C)C2CCCCC2)C1 (stereo not given),32.8

row,SMILES,Papp [×10⁻⁶ cm/s]
1,Cc1nc(-c2ccccc2)cc([C@H]2CN3CC[C@H]2C[C@@H]3CNC2CCOCC2)n1,12.9
2,COc1ccc(-n2nc(C)c([C@@H]3C=C[C@@H](NCc4ccc(N(C)C)cc4)C3)c2C)cc1,> 1000
3,CC(C)(N)C(=O)N[C@H](COCc1ccccc1)C(=O)N1CCC2(CC1)CN(S(C)(=O)=O)c1ccccc12,27.5
4,CCN(CC)C(=O)N1c2ccccc2C=Cc2ccccc21,> 1000
5,c1ccc(CNc2nc(NCc3ccccc3)c3ccccc3n2)cc1,190
6,COc1cc(C2CC(=O)Nc3cc4c(cc32)OCCO4)cc(Br)c1OC (stereo not given),> 1000
7,c1ccc(-c2cn[nH]c2)cc1,51.2
8,CCN(c1ccccc1)S(=O)(=O)c1c(C)nc2scc(C)n2c1=O,479
9,Cn1cc2c3c(cccc31)CN(C(=O)c1ccc(F)c(Cl)c1)CC2,824
10,Cc1nn2c(c1-c1ccccc1-c1ccccc1)N(CC1CC1)CCC2,> 1000
11,O=C(CCCCn1c(=O)[nH]c2ccsc2c1=O)N1CCN(c2cccc(Cl)c2)CC1,719
12,COc1ccc(-n2nc(C3CCCN(C(=O)c4ccccc4F)C3)[nH]c2=O)cc1 (stereo not given),341
13,COc1ccc(-n2nc(C3CCCN(C(=O)c4ccc(C)cc4)C3)[nH]c2=O)cc1 (stereo not given),603
14,Nc1ncc(S(=O)(=O)N2CCN(c3ccccc3)CC2)cn1,6.73
15,C[C@@]1(c2ncncc2F)NC(=O)c2cc(-c3cn[nH]c3)ccc21,> 1000
16,Cc1cnc(SCc2ccccn2)nc1C1CCCN(C(=O)c2scc3c2CCCC3)C1 (stereo not given),> 1000
17,C[C@H]1CN(C(=O)Nc2ccc(F)cc2F)C[C@@H]1c1nc(-c2ccccc2)no1,917
18,CCC(CC)c1cc([C@H]2CN3CC[C@H]2C[C@@H]3CNC(=O)Cc2cccs2)nc(-c2ccncc2)n1,320
19,CCC(C)C1NC(=O)C2CCCN2C(=O)C(CC(C)C)OC(=O)CCNC(=O)C(C)N(C)C(=O)C(C(C)C)N(C)C1=O (stereo not given) (cyclo([ξLac(3-iPr)]PI[NMeV][NMeA][βAla]); configuration not given here),74
20,COc1ccc(CCNc2ncnc3onc(C)c23)c(OC)c1,540
21,COc1ccc(-c2nc3sc(CCNC(=O)C(C)(C)C)c(C)n3n2)cc1,657
22,OC1(c2ccc(Cl)cc2)CCN(Cc2c[nH]c3ccccc23)CC1,419

row,SMILES,Papp [×10⁻⁶ cm/s]
1,O=C(C1CC(=O)N(c2n[nH]c3ccccc23)C1)N1CCC(c2noc3cc(F)ccc23)CC1 (stereo not given),635
2,COc1cc(C2c3c(oc4cc(C)c(C)cc4c3=O)C(=O)N2CCCN2CCOCC2)ccc1O (stereo not given),25.3
3,CCC(CC)c1cc([C@H]2CN3CC[C@H]2C[C@@H]3CNS(=O)(=O)c2cccs2)nc(-c2ccncc2)n1,750
4,CC[C@H](C)[C@@H]([C@@H](CC(=O)N1CCC[C@H]1[C@H](OC)[C@@H](C)C(=O)N[C@@H](Cc1ccccc1)c1nccs1)OC)N(C)C(=O)[C@@H](NC(=O)[C@H](C(C)C)N(C)C)C(C)C,224
5,Cc1ccc(-c2c(CN3CCN(c4cccc(C(F)(F)F)c4)CC3)csc2C)cc1,35
6,Cc1cccc(N(C)c2nc3ccccc3c3nnc(C)n23)c1,> 1000
7,Cc1cccc(N2CCN(c3nc4ccccc4c4nnc(C)n34)CC2)c1C,> 1000
8,Cc1onc(-c2ccc(F)cc2)c1COc1ccc(C(=O)N2CCS(=O)(=O)CC2)cn1,291
9,COC[C@@H]1CN(C(=O)c2nn(C)c3ccccc23)C[C@H]1c1nc(C)no1,65.3
10,COc1cc2cc(CN3CCC(N(C)C)C3)c(-c3cccc(Cl)c3)nc2cc1OC (stereo not given),243
11,CNc1nc2c(s1)C(c1ccccc1F)CC(=O)N2 (stereo not given),60.3
12,COc1ccc(C2c3c(oc4ccc(Cl)cc4c3=O)C(=O)N2CCCN(C)C)cc1OC (stereo not given),7.76
13,COc1cc2c(cc1Oc1cccc(N(C)C)c1)NC(=O)C21CCN(c2cnccn2)CC1,> 1000
14,c1ccc(Nc2cc3c(cn2)CN(Cc2cccs2)CCN3)cc1,106
15,COc1ccc(N(C)C(=O)c2cc3c(s2)-c2ccccc2OC3)cc1,963
16,O=C(c1ccccc1)N1CCC(c2nn(-c3ccc(F)cc3)c(=O)[nH]2)CC1,521
17,Clc1cccc(COc2cncc(N3CCNCC3)n2)c1,742
18,C=C1[C@@H](C)C2[C@H](Cc3ccccc3)NC(=O)[C@@]23C(/C=C/C[C@H](C)C[C@@](C)(O)/C=C/[C@@H]3OC(C)=O)[C@@H]1O (stereo not given in full),55
19,CN1CCN(C2=Nc3ccccc3Sc3ccc(Cl)cc32)CC1,887
20,COc1ccc(-n2nc(C)c([C@@H]3C=C[C@@H](NCc4ccc(F)cc4)C3)c2C)cc1,482
